How the values were obtained:
[1] = compound: CC(=O)c1c(C)c2cnc(Nc3ccc(N4CCNCC4)cn3)nc2n(C2CCCC2)c1=O
Cabozantinib = compound: COc1cc2nccc(Oc3ccc(NC(=O)C4(C(=O)Nc5ccc(F)cc5)CC4)cc3)c2cc1OC [Cabozantinib]
Dasatinib = compound: Cc1nc(Nc2ncc(C(=O)Nc3c(C)cccc3Cl)s2)cc(N2CCN(CCO)CC2)n1 [Dasatinib]
Cediranib/AZD2171 = compound: COc1cc2c(Oc3ccc4[nH]c(C)cc4c3F)ncnc2cc1OCCCN1CCCC1 [Cediranib/AZD2171]
TGX221 = compound: CC1=CN2C(=O)C=C(N=C2C(=C1)C(C)NC3=CC=CC=C3)N4CCOCC4 [TGX221]
[2] = compound: CCc1cnn2c(NCc3ccc[n+]([O-])c3)cc(N3CCCC[C@H]3CCO)nc12
[3] = compound: CCCCOc1c(C(=O)c2c(F)cc(C)cc2F)c[nH]c2nncc1-2
INK128/MLN0128 = compound: CC(C)n1nc(-c2ccc3oc(N)nc3c2)c2c(N)ncnc21 [INK128/MLN0128]
LEE011/Ribociclib = compound: CN(C)C(=O)c1cc2cnc(Nc3ccc(N4CCNCC4)cn3)nc2n1C1CCCC1 [LEE011/Ribociclib]
Buparlisib/NVP-BKM120 = compound: Nc1cc(C(F)(F)F)c(-c2cc(N3CCOCC3)nc(N3CCOCC3)n2)cn1 [Buparlisib/NVP-BKM120]
THZ-P1-2 = compound: CN(C)C/C=C/C(=O)NC1=CC=C(C=C1)C(=O)NC2=CC=CC(=C2)NC3=NC=NC(=C3)C4=CNC5=CC=CC=C54 [THZ-P1-2]
THZ531 = compound: CN(C)C/C=C/C(=O)Nc1ccc(C(=O)N2CCC[C@@H](Nc3ncc(Cl)c(-c4c[nH]c5ccccc45)n3)C2)cc1 [THZ531]
Doxorubicin = compound: COc1cccc2c1C(=O)c1c(O)c3c(c(O)c1C2=O)C[C@@](O)(C(=O)CO)C[C@@H]3O[C@H]1C[C@H](N)[C@H](O)[C@H](C)O1 [Doxorubicin]
Neratinib/HKI272 = compound: CCOc1cc2ncc(C#N)c(Nc3ccc(OCc4ccccn4)c(Cl)c3)c2cc1NC(=O)/C=C/CN(C)C [Neratinib/HKI272]
[4] = compound: Cc1nn(C)c(COc2ccc(N3CCN(S(=O)(=O)N(C)C)CC3)cc2)c1-c1cccc2c(CCCOc3cccc4ccccc34)c(C(=O)O)n(CCN3CCOCC3)c12
BVD523 = compound: CC(C)Nc1cc(-c2c[nH]c(C(=O)N[C@H](CO)c3cccc(Cl)c3)c2)c(Cl)cn1 [BVD523]
THZ1 = compound: CN(C)C/C=C/C(=O)Nc1ccc(C(=O)Nc2cccc(Nc3ncc(Cl)c(-c4c[nH]c5ccccc45)n3)c2)cc1 [THZ1]
Luminespib/NVP-AUY922 = compound: CCNC(=O)c1noc(-c2cc(C(C)C)c(O)cc2O)c1-c1ccc(CN2CCOCC2)cc1 [Luminespib/NVP-AUY922]
Olaparib/AZD2281 = compound: O=C(c1cc(Cc2n[nH]c(=O)c3ccccc23)ccc1F)N1CCN(C(=O)C2CC2)CC1 [Olaparib/AZD2281]
Torin2 = compound: C1=CC(=CC(=C1)N2C(=O)C=CC3=CN=C4C=CC(=CC4=C32)C5=CN=C(C=C5)N)C(F)(F)F [Torin2]
Alpelisib/BYL719 = compound: Cc1nc(NC(=O)N2CCC[C@H]2C(N)=O)sc1-c1ccnc(C(C)(C)C(F)(F)F)c1 [Alpelisib/BYL719]
senexin b = compound: CN1CCN(C(=O)c2ccc3cc(CCNc4ncnc5ccc(C#N)cc45)ccc3c2)CC1 [senexin b]
Volasertib/BI6727 = compound: CC[C@@H]1C(=O)N(C)c2cnc(Nc3ccc(C(=O)N[C@H]4CC[C@H](N5CCN(CC6CC6)CC5)CC4)cc3OC)nc2N1C(C)C [Volasertib/BI6727]
BSJ-03-123 = compound: CC(=O)c1c(C)c2cnc(Nc3ccc(N4CCN(CCOCCOCCOCCNC(=O)COc5cccc6c5C(=O)N(C5CCC(=O)NC5=O)C6=O)CC4)cn3)nc2n(C2CCCC2)c1=O [BSJ-03-123]
[5] = compound: CNc1nc(-c2ccc3c(N)n[nH]c3c2)cc(N2C[C@@H](C(=O)NC3CCCCC3)CC[C@H]2C)n1
Paclitaxel = compound: CC(=O)O[C@H]1C(=O)[C@@]2(C)[C@H]([C@H](OC(=O)c3ccccc3)[C@]3(O)C[C@H](OC(=O)[C@H](O)[C@@H](NC(=O)c4ccccc4)c4ccccc4)C(C)=C1C3(C)C)[C@]1(OC(C)=O)CO[C@@H]1C[C@@H]2O [Paclitaxel]
AZD1775 = compound: C=CCn1c(=O)c2cnc(Nc3ccc(N4CCN(C)CC4)cc3)nc2n1-c1cccc(C(C)(C)O)n1 [AZD1775]
Ceritinib/LDK378 = compound: Cc1cc(Nc2ncc(Cl)c(Nc3ccccc3S(=O)(=O)C(C)C)n2)c(OC(C)C)cc1C1CCNCC1 [Ceritinib/LDK378]
AZD5363 = compound: NC1(C(=O)N[C@@H](CCO)c2ccc(Cl)cc2)CCN(c2nc[nH]c3nccc2-3)CC1 [AZD5363]
SHP099 = compound: CC1(CCN(CC1)C2=CN=C(C(=N2)N)C3=C(C(=CC=C3)Cl)Cl)N [SHP099]
Pictilisib/GDC0941 = compound: CS(=O)(=O)N1CCN(Cc2cc3nc(-c4cccc5[nH]ncc45)nc(N4CCOCC4)c3s2)CC1 [Pictilisib/GDC0941]
Rucaparib = compound: CNCc1ccc(-c2[nH]c3cc(F)cc4c3c2CCNC4=O)cc1 [Rucaparib]
R0-3306 = compound: C1=CC2=C(C=CC(=C2)C=C3C(=O)NC(=NCC4=CC=CS4)S3)N=C1 [R0-3306]
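Note: breast cancer and non-malignant breast epithelial cell lines, Deep Dye Drop or Dye Drop imaging, nine half-log doses, GR normalized to time-zero plates and DMSO-only controls.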

Cell Line | GR50, 72 h [1] | GR50, 72 h (Cabozantinib) | GR50, 72 h (Dasatinib) | GR50, 72 h (Cediranib/AZD2171) | GR50, 72 h (TGX221) | GR50, 72 h [2] | GR50, 72 h [3] | GR50, 72 h (INK128/MLN0128) | GR50, 72 h (LEE011/Ribociclib) | GR50, 72 h (Buparlisib/NVP-BKM120) | GR50, 72 h (THZ-P1-2) | GR50, 72 h (THZ531) | GR50, 72 h (Doxorubicin) | GR50, 72 h (Neratinib/HKI272) | GR50, 72 h [4] | GR50, 72 h (BVD523) | GR50, 72 h (THZ1) | GR50, 72 h (Luminespib/NVP-AUY922) | GR50, 72 h (Olaparib/AZD2281) | GR50, 72 h (Torin2) | GR50, 72 h (Alpelisib/BYL719) | GR50, 72 h (senexin b) | GR50, 72 h (Volasertib/BI6727) | GR50, 72 h (BSJ-03-123) | GR50, 72 h [5] | GR50, 72 h (Paclitaxel) | GR50, 72 h (AZD1775) | GR50, 72 h (Ceritinib/LDK378) | GR50, 72 h (AZD5363) | GR50, 72 h (SHP099) | GR50, 72 h (Pictilisib/GDC0941) | GR50, 72 h (Rucaparib) | GR50, 72 h (R0-3306)
184A1 | 0.0897 µM | 8.43 µM | 0.756 µM | 7.6 µM | > 10 µM | 0.0086 µM | < 0.001 µM | 0.00892 µM | 0.285 µM | 1.52 µM | 1.72 µM | 0.269 µM | 0.00333 µM | 0.0293 µM | 3.65 µM | 0.00782 µM | 0.00774 µM | 0.00549 µM | > 10 µM | 0.0106 µM | 7.72 µM | > 10 µM | 0.0124 µM | 0.00892 µM | > 10 µM | 0.00313 µM | 0.674 µM | 1 µM | > 10 µM | 6.56 µM | 1.3 µM | > 10 µM | 2.78 µM
CAMA1 | 0.0742 µM | 8.39 µM | > 10 µM | 5.02 µM | > 10 µM | 0.0146 µM | < 0.001 µM | 0.00961 µM | 0.0104 µM | 1.01 µM | 3.39 µM | 0.139 µM | 0.00747 µM | 2.83 µM | > 10 µM | 2.73 µM | 0.0336 µM | 0.00885 µM | > 10 µM | 0.00918 µM | > 10 µM | 1.09 µM | 0.00782 µM | 0.00879 µM | > 10 µM | 0.00227 µM | 5.45 µM | 1.8 µM | 0.0498 µM | > 10 µM | 1.55 µM | > 10 µM | 4.36 µM
CAL120 | > 3.16 µM | 7.34 µM | 0.0496 µM | 1.04 µM | > 10 µM | 0.00989 µM | 2.2 µM | 0.0115 µM | > 10 µM | 0.702 µM | 6.25 µM | 0.15 µM | 0.00944 µM | 0.585 µM | > 10 µM | 9.62 µM | 0.0579 µM | 0.00281 µM | 5.12 µM | 0.0105 µM | > 10 µM | > 10 µM | 0.00185 µM | 5.27 µM | > 10 µM | 0.00288 µM | 0.197 µM | 0.799 µM | > 10 µM | > 10 µM | 2.07 µM | > 10 µM | 8.5 µM
BT20 | 0.0435 µM | 5.35 µM | 0.68 µM | 5.69 µM | > 10 µM | 0.0185 µM | 0.002 µM | 0.0129 µM | 0.359 µM | 0.638 µM | 6.01 µM | > 1 µM | 0.00874 µM | 1.27 µM | > 10 µM | > 10 µM | 0.499 µM | 0.00597 µM | > 10 µM | 0.0089 µM | 2.03 µM | 2.3 µM | 0.00563 µM | 0.386 µM | > 10 µM | 0.00202 µM | 1.9 µM | 1.53 µM | 2 µM | > 10 µM | 0.904 µM | > 10 µM | 5.2 µM
HS578T | 0.156 µM | 6.38 µM | 0.0386 µM | 0.551 µM | > 10 µM | 0.00894 µM | 0.0165 µM | 0.00906 µM | 2.33 µM | 0.687 µM | > 10 µM | 0.0496 µM | 0.00411 µM | 0.644 µM | > 10 µM | 1.14 µM | 0.0183 µM | 0.0033 µM | 8.91 µM | 0.0071 µM | > 10 µM | > 10 µM | 0.00257 µM | 1.45 µM | > 10 µM | 0.00102 µM | 0.0155 µM | 0.965 µM | 4.82 µM | > 10 µM | 1.16 µM | > 10 µM | 4.28 µM
HCC1395 | 0.0952 µM | 5.55 µM | 0.0748 µM | 1.59 µM | 8.42 µM | 0.0124 µM | 0.00575 µM | 0.0108 µM | 3.67 µM | 0.93 µM | 2.89 µM | 0.0785 µM | 0.0179 µM | 0.958 µM | > 10 µM | 1.72 µM | 0.022 µM | 0.005 µM | 1.87 µM | 0.0146 µM | > 10 µM | 5.9 µM | 0.00321 µM | 1.12 µM | > 10 µM | 0.00388 µM | 0.00604 µM | 1.6 µM | 0.135 µM | > 10 µM | 1.43 µM | 0.957 µM | 0.463 µM
